{"source": "patent US6911549B1", "about": "“Method of preparing a taxol derivative” (priority 1992, dated 2005)", "key": {"[1]": {"test_system": "L1210 leukemia", "assay": "L1210 leukemia cell proliferation inhibition (Table 1, procedure of Li et al.)", "assay_type": "cell-based, mouse", "settings": "drug concentration required to inhibit cell proliferation to 50% of untreated control cells; for IC50: Mus musculus, L1210, read-out: L1210 (IC50 μg/ml)", "from_the_text": "The biological activity of the compounds of this invention has been further confirmed using well known procedures against L1210 leukemia and the results set forth in Table I. The results were obtained using standard well known procedure (Li, L. H.; Kuentzel, S. L.; Murch, L. L.; Pschigoga, L. M.; and W. C. Krueger, “Comparative biological and biochemical effects of nogalamycin and its analogs on L1210 leukemia,” Cancer Res. 39:4816-4822 (1979)). The results are expressed as an IC50 which is the drug concentration required to inhibit cell proliferation to 50% of that of untreated control cells. Lower numbers indicated greater activity."}, "[2]": {"test_system": "tubulin", "assay": "In vitro tubulin polymerization assay after Gaskin et al.", "assay_type": "biochemical", "settings": "in vitro at 20° C.; for induction of tubulin polymerization in vitro: compared with taxol", "from_the_text": "(§1) The biological activity of the 7-deoxy-7β,8β-methanotaxol compounds (Formula II) of the invention has been confirmed using well known procedures.\n(§2) The biological activity of the 7-deoxy-7-halotaxol compounds (Formula III) of the invention has been confirmed using well known procedures."}, "[3]": {"test_system": "A2780 (human ovarian carcinoma) cells", "assay": "Cytotoxicity in A2780 (human ovarian carcinoma) cells in culture (IC90)", "assay_type": "cell-based", "from_the_text": "as §2"}, "[4]": {"test_system": "L1210 mouse leukemia carcinoma cells", "assay": "Cytotoxicity in L1210 mouse leukemia carcinoma cells in culture (IC90)", "assay_type": "cell-based", "from_the_text": "as §1"}}, "data": [{"compound": "CC(=O)OC1C(=O)C2(C)C(F)CC3OCC3(OC(C)=O)C2C(OC(=O)c2ccccc2)C2(O)CC(OC(=O)C(OC(=O)OCC(Cl)(Cl)Cl)C(NC(=O)c3ccccc3)c3ccccc3)C(C)=C1C2(C)C", "note": "(stereo not shown) [Compound 13AA, 2′-{[(2,2,2-Trichloroethyl)-oxy]carbonyl}-7-deoxy-7-fluorotaxol]", "values": [{"measurement": "L1210 (IC50 μg/ml)", "setting": "[1]", "result": 0.054, "unit": "µg/mL"}]}, {"compound": "CC(=O)O[C@H]1C(=O)[C@]2(C)C(F)C[C@H]3OC[C@@]3(OC(C)=O)[C@H]2[C@H](OC(=O)c2ccccc2)[C@]2(O)C[C@H](OC(=O)[C@H](OC(=O)OCC(Cl)(Cl)Cl)[C@@H](NC(=O)OC(C)(C)C)c3ccccc3)C(C)=C1C2(C)C", "note": "(stereo partly shown) [Compound 13DA, N-Debenzoyl-N-(t-butyl)oxycarbonyl-2′-{[(2,2,2-trichloroethyl)oxy]carbonyl}-7-deoxy-7-fluorotaxol]", "values": [{"measurement": "L1210 (IC50 μg/ml)", "setting": "[1]", "result": 0.015, "unit": "µg/mL"}]}, {"compound": "CC(=O)OC1C(=O)C23CC2CC2OCC2(OC(C)=O)C3C(OC(=O)c2ccccc2)C2(O)CC(OC(=O)C(OC(=O)OCC(Cl)(Cl)Cl)C(NC(=O)c3ccccc3)c3ccccc3)C(C)=C1C2(C)C", "note": "(stereo not drawn) [Compound 14AA, 2′-{[(2,2,2-Trichloroethyl)oxy]carbonyl}-7-deoxy-7β,8β-methanotaxol]", "values": [{"measurement": "L1210 (IC50 μg/ml)", "setting": "[1]", "result": ">0.1", "unit": "µg/mL"}]}, {"compound": "CC(=O)O[C@H]1C(=O)C23C[C@@H]2CC2OC[C@@]2(OC(C)=O)C3[C@H](OC(=O)c2ccccc2)[C@]2(O)CC(OC(=O)C(OC(=O)OCC(Cl)(Cl)Cl)[C@@H](NC(=O)OC(C)(C)C)c3ccccc3)C(C)=C1C2(C)C", "note": "(stereo partly drawn) [Compound 14DA, N-Debenzoyl-N-(t-butyl)oxycarbonyl-2′-{[(2,2,2-trichloroethyl)oxy]carbonyl}-7-deoxy-7β,8β-methanotaxol]", "values": [{"measurement": "IC50", "setting": "[1]", "result": 0.012, "unit": "µg/mL"}]}, {"compound": "CC(=O)OC1C(=O)C2(C)C(F)CC3OCC3(OC(C)=O)C2C(OC(=O)c2ccccc2)C2(O)CC(OC(=O)C(O)C(NC(=O)OC(C)(C)C)c3ccccc3)C(C)=C1C2(C)C", "note": "(stereo not shown) [Compound 20, N-Debenzoyl-N-(t-butyl)oxycarbonyl-7-deoxy-7-fluorotaxol]", "values": [{"measurement": "L1210 (IC50 μg/ml)", "setting": "[1]", "result": 0.0038, "unit": "µg/mL"}]}, {"compound": "CC(=O)O[C@H]1C(=O)[C@]23C[C@H]2C[C@H]2OC[C@@]2(OC(C)=O)[C@H]3[C@H](OC(=O)c2ccccc2)[C@]2(O)C[C@H](OC(=O)[C@H](O)[C@@H](NC(=O)OC(C)(C)C)c3ccccc3)C(C)=C1C2(C)C", "note": "[Compound 23, N-Debenzoyl-N-(t-butyl)oxycarbonyl-7-deoxy-7β,8β-methanotaxol]", "values": [{"measurement": "L1210 (IC50 μg/ml)", "setting": "[1]", "result": 0.0046, "unit": "µg/mL"}]}, {"compound": "CC(=O)O[C@H]1C(=O)[C@@]2(C)C(F)C[C@H]3OC[C@@]3(OC(C)=O)[C@H]2[C@H](OC(=O)c2ccccc2)[C@]2(O)C[C@H](OC(=O)[C@H](O)[C@@H](NC(=O)NC(C)(C)C)c3ccccc3)C(C)=C1C2(C)C", "note": "(stereo partly shown) [Compound 28, N-debenzoyl-N-(t-butyl)aminocarbonyl-7-deoxy-7-fluoro-taxol]", "values": [{"measurement": "L1210 (IC50 μg/ml)", "setting": "[1]", "result": 0.0055, "unit": "µg/mL"}]}, {"compound": "CC(=O)O[C@H]1C(=O)[C@@]23CC2C[C@H]2OC[C@@]2(OC(C)=O)[C@H]3[C@H](OC(=O)c2ccccc2)[C@]2(O)C[C@H](OC(=O)[C@H](O)[C@@H](NC(=O)NC(C)(C)C)c3ccccc3)C(C)=C1C2(C)C", "note": "(stereo partly drawn) [Compound 29, N-debenzoyl-N-(t-butyl)aminocarbonyl-7-deoxy-7β,8β-methano-taxol]", "values": [{"measurement": "L1210 (IC50 μg/ml)", "setting": "[1]", "result": 0.006, "unit": "µg/mL"}]}, {"compound": "CC(=O)O[C@H]1C(=O)[C@]2(C)C(F)C[C@H]3OC[C@@]3(OC(C)=O)[C@H]2[C@H](OC(=O)c2ccccc2)[C@]2(O)CC(OC(=O)[C@H](O)[C@@H](NC(=O)c3ccccc3)c3ccccc3)C(C)=C1C2(C)C", "note": "(stereo partly shown) [Compound IIIb, 7-Deoxy-7-fluorotaxol]", "values": [{"measurement": "potency relative to taxol in tubulin polymerization assay", "setting": "[2]", "result": "approximately half as potent as taxol"}, {"measurement": "induction of tubulin polymerization in vitro", "setting": "[2]", "result": "able to induce tubulin polymerization in vitro at 20 °C in a manner very similar to taxol"}, {"measurement": "IC90", "setting": "[3]; Homo sapiens, A2780, read-out: IC90 (90% growth inhibitory concentration)", "result": 0.016, "unit": "µg/mL"}, {"measurement": "IC50", "setting": "[1]", "result": 0.01, "unit": "µg/mL"}]}, {"compound": "CC(=O)OC1C(=O)C23CC2CC2OCC2(OC(C)=O)C3C(OC(=O)c2ccccc2)C2(O)CC(OC(=O)C(O)C(NC(=O)c3ccccc3)c3ccccc3)C(C)=C1C2(C)C", "note": "(stereo not drawn) [Compound IIb, 7-Deoxy-7β,8β-methanotaxol]", "values": [{"measurement": "induction of tubulin polymerization in vitro", "setting": "[2]", "result": "able to induce tubulin polymerization in vitro at 20 °C in a manner very similar to taxol"}, {"measurement": "L1210 (IC50 μg/ml)", "setting": "[1]", "result": 0.012, "unit": "µg/mL"}, {"measurement": "IC90 (90% growth inhibitory concentration)", "setting": "[4]", "result": 0.025, "unit": "micrograms/ml"}]}, {"compound": "CC(=O)O[C@H]1C(=O)[C@@]2(C)[C@H]([C@H](OC(=O)c3ccccc3)[C@]3(O)C[C@H](OC(=O)[C@H](O)[C@@H](NC(=O)c4ccccc4)c4ccccc4)C(C)=C1C3(C)C)[C@]1(OC(C)=O)CO[C@@H]1C[C@@H]2O", "note": "[Taxol]", "values": [{"measurement": "IC90 (90% growth inhibitory concentration)", "setting": "[3]; A2780 (human ovarian carcinoma) cells in culture", "result": 0.007, "unit": "micrograms/ml"}, {"measurement": "L1210 (IC50 μg/ml)", "setting": "[1]", "result": 0.015, "unit": "µg/mL"}, {"measurement": "IC90 (90% growth inhibitory concentration)", "setting": "[4]", "result": 0.06, "unit": "micrograms/ml"}]}, {"compound": "CC(=O)O[C@@]12CO[C@@H]1C[C@H](O)[C@@]1(C)C(=O)[C@H](O)C3=C(C)[C@@H](OC(=O)[C@H](O)[C@@H](NC(=O)OC(C)(C)C)c4ccccc4)C[C@@](O)([C@@H](OC(=O)c4ccccc4)[C@H]21)C3(C)C", "note": "[Taxotere, reference compound]", "values": [{"measurement": "IC50", "setting": "[1]", "result": 0.004, "unit": "µg/mL"}]}]}
